The structures appear in SMILES notation. Peptide text beside a SMILES is read from it. * marks the point of attachment. Cbz = O=C(OCc1ccccc1)*

One assay relates to BACE1. Put plainly: BACE1 steady-state levels by Western blot in stably transfected CHO cells. The note with it: CHO cells, proteasome inhibitor for 10 hours (MG-132 5 μM, lactacystin 10 μM). The assay is classed as cell-based, human. The protocol: Chinese Hamster Ovary (CHO) cells were grown in DMEM (Gibco BRL—Invitrogen, Carlsbad, Calif.) supplemented with 10% fetal bovine serum (FBS) and penicillin/streptomycin (Mediatech, Inc., Herndon, Va.) as described before (Puglielli et al., 2001, Nat. Cell Biol. 3: 905-912; Puglielli et al., 2003, J. Biol. Chem. 278: 19777-19783; Costantini et al., 2005, Biochem. J. 391: 59-67; Costantini et al., 2006, EMBO J. 25: 1997-2006). Cells were maintained in a humidified atmosphere with 5% CO2. For ceramide treatment, C6-ceramide (also simply called ceramide herein) was administered at the final concentration of 10 μM; treatment was started when cells were ˜30% confluent and carried out for 4 days, unless specified otherwise. Treatment with proteasome inhibitors MG-132 (5 μM) and lactacystin (10 μM) was done for 10 hours, as described earlier (Qing et al., 2004, FASEB J. 18: 1571-1573).
Cell lysates were prepared in GTIP buffer (100 mM Tris-pH 7.6, 20 mM EDTA, 1.5 M NaCl) with 1% Triton X-100 (Roche, Basel, Switzerland), 0.25% NP40 (Roche), and a protease inhibitor cocktail (Roche) as described before (Puglielli et al., 2003, J. Biol. Chem. 278: 19777-19783; Costantini et al., 2005, Biochem. J. 391: 59-67). Briefly, cell monolayers were washed twice in PBS, scraped, transferred into eppendorf tubes, and centrifuged at 8,000 rpm for 5 min in a table-top centrifuge. Cell pellets were then lysed in ice for 30 min with the buffer indicated above, and centrifuged again at 14,000 rpm prior to the recollection of the protein extracts. Proteins were quantitated with the BCA Protein Assay (Pierce, Rockford, Ill.) following the manufacturer's instructions.
For the immunoprecipitation of BACE1, cell lysates were pre-cleared with BioMag Protein A (Polysciences, Inc., Warrington, Pa.); beads were used at the concentration of 15 μl of the slurry per sample and separated with a magnetic holder. BACE1 was then immunoprecipitated with anti-BACE1 antibodies overnight and recovered with BioMag Protein A as above. The immunoprecipitate-bead complexes were washed 3 times in PBS and boiled for 10 min in SDS sample buffer (Invitrogen) with β-mercaptoethanol. Beads were then separated and the samples were analyzed by reducing SDS-PAGE.
Western blotting was performed on 10% Bis-Tris, 4-12% Bis-Tris, or 7% Tris-Acetate SDS-PAGE systems (NuPAGE; Invitrogen) as described (Puglielli et al., 2001, Nat. Cell Biol. 3: 905-912; Puglielli et al., 2003, J. Biol. Chem. 278: 19777-19783; Costantini et al., 2005, Biochem. J. 391: 59-67; Costantini et al., 2006, EMBO J. 25: 1997-2006). The following antibodies were used: anti-BACE1 N-terminal (monoclonal antibody; R&D Systems, Minneapolis, Minn.); anti-BACE1 C-terminal (polyclonal antibody; Abcam, Cambridge, Mass.); anti-pro-BACE1 (polyclonal; Abcam); anti-acetylated lysine (monoclonal; Abcam); anti-calreticulin (ER marker, polyclonal; Abcam); anti-58 K Golgi/formiminotransferase cyclodeaminase (Golgi marker, polyclonal; Abcam); anti-syntaxin (Golgi marker, monoclonal; Abcam); anti-EEA1 (endosomes, monoclonal; BD Transduction Laboratories, Lexington, Ky.); anti-actin (polyclonal; Cell Signaling, Danvers, Mass.). Secondary antibodies (Amersham) were used at a 1:6000 dilution. Binding was detected by chemiluminescence (LumiGLO kit; KPL, Gaithersburg, Md.). Only a representative blot of at least three different experiments is shown throughout the paper.
FIG. 1 illustrates how BACE1 is transiently acetylated in the lumen of the ER. For this experiment, CHO cells expressing human BACE1 were treated with C6-ceramide (also simply called ceramide herein) for different periods of time. BACE1 was then immunoprecipitated and analyzed by Western blotting. FIG. 1(A): CHO cells stably expressing BACE1 were treated with ceramide for the indicated time. BACE1 was immunoprecipitated from total cell lysates, separated on a 7% Tris-Acetate NuPAGE system, and then analyzed by Western blot using either anti-BACE1 or anti-acetylated lysine antibodies. […]
For orientation: A western blot detects proteins with antibodies after separation by electrophoresis.

The target in assay [1] is T1, ER membrane acetyl-CoA transport activity (Cricetulus griseus, UniProt G3H231).
T1 sequence (G3H231 1-550): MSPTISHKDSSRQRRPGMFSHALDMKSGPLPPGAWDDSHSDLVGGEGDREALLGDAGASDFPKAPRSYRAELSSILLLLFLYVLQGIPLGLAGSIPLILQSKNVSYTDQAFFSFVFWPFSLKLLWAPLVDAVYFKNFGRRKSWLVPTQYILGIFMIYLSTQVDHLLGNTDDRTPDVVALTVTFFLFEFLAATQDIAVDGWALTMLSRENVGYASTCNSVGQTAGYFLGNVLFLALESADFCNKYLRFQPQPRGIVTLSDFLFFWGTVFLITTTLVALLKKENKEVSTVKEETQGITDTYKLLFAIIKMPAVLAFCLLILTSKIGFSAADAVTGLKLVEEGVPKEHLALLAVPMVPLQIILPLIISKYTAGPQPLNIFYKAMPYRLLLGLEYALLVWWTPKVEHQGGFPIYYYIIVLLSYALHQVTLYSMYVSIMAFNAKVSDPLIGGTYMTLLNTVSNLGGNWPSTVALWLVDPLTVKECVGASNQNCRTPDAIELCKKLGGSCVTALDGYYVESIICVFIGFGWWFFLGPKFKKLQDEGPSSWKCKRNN
Put plainly: Acetyl-CoA transport assay into intact ER vesicles. The assay is classed as biochemical, Chinese Hamster. The following applies: ER vesicles, increasing concentrations of Coenzyme A.
Experimental: Intact vesicles from the endoplasmic reticulum (ER) and the Golgi apparatus were purified on a 10-34% Iodixanol (OptiPrep; Axis-Shield, Norway) continuous gradient as described (Puglielli et al., 2001, Nat. Cell Biol. 3: 905-912). […] Fractions enriched in ER and Golgi markers (also called ER or Golgi vesicles herein) were separated, pooled together, and resuspended in isotonic/cryogenic buffer (0.25 M sucrose and 10 mM Tris-HCl, pH 7.4) in the presence of protease inhibitors (Roche). Latency of ER and Golgi vesicles was determined with the glucose-6-phosphatase (Clairmont et al., 1992, J. Biol. Chem. 267: 3983-3900) and the sialyl-transferase (Puglielli and Hirschberg, 1999, J. Biol. Chem. 274: 35596-35600) methods, respectively. The purity of the preparation was further confirmed by assaying the above enzymatic activities, together with transport of CMP-sialic acid.
Briefly, assays were performed in 100 μl final volume (isotonic/cryogenic buffer) using 25 to 50 μg of ER/Golgi vesicles protein. […] After 5 min at 30° C., reactions were stopped by lowering the temperature to 0-4° C. and by adding 100 μl of ice-cold isotonic/cryogenic buffer (described above). […] Pellets were then dissolved in 0.6 mL of NaOH 1 N; after neutralization with 0.2 mL of 4N HCl, samples were counted by scintillation spectrometry. […]
Asterisk (*) indicates statistical significance (n=3) (P<0.0005). FIG. 5(D): transport of CMP-sialic acid into ER and Golgi intact vesicles was measured as described in (A). […] FIG. 5(E): transport of ATP into ER intact vesicles obtained from control and ceramide-treated CHO cells was measured as described in FIG. 5(A). […]
Translocation was measured as described in the Materials and Methods section. […] FIG. 10(E): transport of ATP into ER intact vesicles obtained from control and ceramide-treated CHO cells was measured as described in FIG. 10(A). […]
Results are expressed as percent of control (no CoA; white bar) and are the average±S.D. Asterisk (*) indicates statistical significance. […]

Take `CC(C)C[C@@H](C=O)NC(=O)[C@H](CC(C)C)NC(=O)[C@H](CC(C)C)NC(=O)OCc1ccccc1` [MG-132] (Cbz-Leu-Leu-Leu-aldehyde): in the assay on BACE1, the “steady-state levels of BACE1Ala” value is on record as “not those of BACE1Ala” and the “steady-state levels of BACE1WT” value is on record as “successfully increased”.
As to `CC(C)(COP(=O)(O)OP(=O)(O)OC[C@H]1O[C@@H](n2cnc3c(N)ncnc32)[C@H](O)[C@@H]1OP(=O)(O)O)[C@@H](O)C(=O)NCCC(=O)NCCS` [Coenzyme A], in assay [1], the “acetyl-CoA transport across the ER membrane” value is reported as “inhibited”.
On to `CC(=O)N[C@@H](CSC(=O)[C@]1([C@@H](O)C(C)C)NC(=O)[C@H](C)[C@@H]1O)C(=O)O` [lactacystin], for which, in the assay on BACE1, the “steady-state levels of BACE1Ala” value is “not those of BACE1Ala” and the “steady-state levels of BACE1WT” value is on record as “successfully increased”.

The values above are taken from patent publication US20090042993A1, “IDENTIFICATION OF NOVEL POST-TRANSLATIONAL PROTEIN MODIFICATIONS” (priority 2007, published 2009).
